In patent US6384188B1, “Lipopolysaccharide-binding and neutralizing peptides” (Dana-Farber Cancer Institute, Inc., priority 1993, dated 2002):
Bridge positions count the residues as written; N and C are the ends. Peptide text beside a SMILES is read from it. * marks the point of attachment. Biotin = O=C1N[C@H]2[C@H](CS[C@H]2CCCCC(=O)*)N1

How the values were obtained:
[1] = LPS binding as determined by ELISA (general description); parameters: species or system E. coli
Description: (§1) In a still further preferred embodiment, the present invention provides for peptides which effectively bind to LPS and are constrained to adopt a circular conformation by an intramolecular bridge. In this context, the circular conformation can be brought about by any one of a number of intramolecular bridges. Preferably, the peptide may incorporate two cysteine residues between which a disulfide bond is formed by an oxidation reaction. Alternatively, the two cysteines may be linked through a homo-bifunctional cross-linking reagent, such as a bis-maleimide. Particularly preferred are the cyclic peptides comprising amino acids 31 to 52 and amino acids 38 to 45 of LALF, each stabilized by a disulfide bond formed between two cysteine residues, producing a cyclic conformation (FIG. 2). […] This defines a minimal LPS-binding domain to be the peptide spanning amino acids 38 to 45 of LALF. […] Thus, particularly preferred are also the peptides spanning amino acids 90 to 101 and amino acids 90 to 97 of LBP (FIG. 3). […] This defines a second minimal LPS binding domain to be the peptide spanning amino acids 90 to 97 of LBP. […] Particularly preferred are the peptides spanning amino acids 90 to 97 and amino acids 90 to 101 of BPI (FIG. 4). This defines a third minimal LPS-binding domain to be the peptide spanning amino acids 90 to 97 of BPI.

[2] = tested on: biotin-labelled LBP-14 binding to immobilized lipid A; test: Competition of LBP14:lipid A binding by peptides and proteins (ELISA); conditions: unlabelled competitor in increasing amounts, biotin-LBP-14 1 μg/ml; FIG. 16; very similar result with LALF-14
Experimental: An ELISA plate (NUNC, Polysorp 96U) is coated for 90 min. at 37° C. with 100 μl lipid A in PBS (0.2-0.3 μg/ml). All further steps are done at room temperature. After washing and blocking (10 min.) with PBS/0.1%. Tween, the solid phase is incubated for 1 hr with 100 μl of increasing amounts (0.01 μg/ml-10 μg/ml) of unlabelled peptides or proteins mixed with a biotin-labelled peptide (1 μg/ml in PBST/0.1% Tween). After washing with PBS/0.1% Tween, 100μl streptavidin conjugated to alkaline phosphatase (Boehringer Mannheim GmbH, 1:10000 diluted in PBS/0.1% Tween) is added to the wells. This incubation is followed by washing with PBS/0.1% Tween and 100 mM Tris pH 9.5. p-Nitrophenyl-phosphate (2 mg/ml in 100 mM Tris pH 9.5) is used as a substrate for alkaline phosphatase. The ELISA is read at 405 nm.
CD14 is used to compete the peptide-lipid A binding. The principle of such a binding assay is the same as for the LALF- or LBP-lipid A competition assays in which a constant amount of detectable peptide or protein is competed by an increasing amount of another peptide or protein. Instead of detecting LALF, bound biotin-labelled peptide is detected with streptavidin conjugated to alkaline phosphatase, and the labelled peptide concentration is kept constant while the unlabelled peptide or protein amount is increased. […] A very similar result is observed when LALF-14 is used instead of LBP-14.

[3] = tested on: LALF binding to immobilized lipid A; test: Competition of LALF:lipid A binding by peptides (ELISA)
Experimental: (§2) To investigate the specificity of peptides in binding lipid A and LPS, competition experiments with known endotoxin binding proteins such as LALF and LBP and the antibiotic polymyxin B are carried out. Thus an ELISA plate (NUNC, Polysorp 96U) is coated for 90 min. at 37° C. with 100 μl lipid A in PBS (0.25-0.3 μg/ml) or lipopolysaccharide in PBS (0.25-0.3 μg/ml). All further steps are done at room temperature. After washing and blocking (10 min.) with PBS/0.1% Tween, the solid phase is incubated for 1 hr with 100 μl or increasing amounts (0.01 μg/ml-100 μg/ml in PBS/0.1% Tween) of unlabelled or biotin-labelled peptides mixed with an endotoxin binding protein (LALF or LBP; 0.2 μg/ml in PBS/0.1% Tween). After washing with PBS/0.1% Tween, the ELISA plate is incubated for 45 min. with 100 μl of a rabbit antiserum against LALF or LBP, respectively. After washing with PBS/0.1% Tween the ELISA plate is incubated with 100 μl anti-rabbit antibody conjugated to alkaline phosphatase (SIGMA; 1:10000 diluted in PBS/0.1% Tween) and washed with PBS/0.1% Tween and 100 mM Tris pH 9.5. p-Nitrophenyl-phosphate (2 mg/ml in 100 mM Tris pH 9.5) is used as a substrate for alkaline phosphatase. The ELISA is read at 405 nm.

[4] = tested on: LALF binding to immobilized lipid A; test: Influence of serum on the competition of LALF:lipid A binding by peptide; conditions: 100 μg/ml peptide, 10% fetal calf serum; FIG. 18
Experimental: as §2, with “nm. […]” for “nm.”

[5] = tested on: LBP binding to immobilized lipid A; test: Competition of LBP:lipid A binding by peptides (ELISA); conditions: 100 μg/ml peptide; FIG. 15
Experimental: as §2
The ability of the peptides to compete with LBP for binding to LPS is determined in the same way as in Example 5, except that LALF is replaced with LBP (see FIG. 15). […]

[6] = Limulus amebocyte lysate test (gelling assay); format: biochemical, E. coli; conditions: peptides 0.1-10 μg/ml preincubated with LPS 15 min at 37° C.; FIG. 19
Experimental: (§3) The Limulus amebocyte Lysate test (gelling assay; sensitivity 0.125 EU/ml) and the Chromogenic Limulus amebocyte Lysate test (sensitivity 0.06 EU/ml) are performed according to the manufacturer's instruction (Bio*Whittaker, Walkersville, Md.) using E. coli 055:B5 lipopolysaccharide. For neutralisation of LPS, peptides (0.1-10 μg/ml) and LPS are incubated for 15 min. at 37° C. and then added to the Limulus lysate. […] The chromogenic assay allows quantification of the lipopolysaccharide neutralizing capacity of the peptides.

[7] = tested on: monocytes (LPS Re-LPS F515 induced TNF release); test: Inhibition of LPS-mediated TNF release by monocytes; format: cell-based, human; conditions: peptide 10 μg/ml preincubated with LPS; TNF by ELISA; FIG. 20
Experimental: Monocytes are purified with a ficoll gradient (d=1.077) from whole blood by centrifugation for 20 min. at 2200 rpm at room temperature. Ficoll is removed by washing 3 times with PBS. Purified monocytes are counted and diluted to 2×10^6 cells/900 μl in medium (RPMI+) or medium with 0.1%-10% human serum. For TNF induction, 2×10^6 monocytes (in 900 μl medium or medium with serum) and 100 μl of LPS (Re-LPS F515; 0.1 ng/ml-10 ng/ml) or mixtures of LPS with peptides (10 μg/ml) (preincubated for 15 min. at 37° C.) are incubated in a 24 well plate (NUNC) for 2 to 5 hr. The supernatant is taken off and spun twice for 2 min. at 1500 rpm, once for 5 min. at 15000 rpm and stored at −20° C. for TNF determination. The induced TNF is assayed by ELISA according to the manufacturer's instruction (BioSource International, California) using a 50 μl sample of thawed supernatant.

[8] = ELISA binding of biotinylated peptides to immobilized lipid A; conditions: biotinylated peptide 0.1-10 μg/ml on immobilized lipid A; FIG. 8, 9
Experimental: The lipid A-binding activities of the peptides are shown in an ELISA format as follows. An ELISA plate (NUNC, Polysorp 96U) is coated for 90 minutes at 37° C. with 100 μl lipid A in PBS (0.25-1 μg/ml). All further steps are done at room temperature. After washing and blocking (10 min.) with PBS/0.1% Tween, the solid phase is incubated for 1 hour with 100 μl of increasing amounts (0.1 μg/ml-10 μg/ml) of purified synthetic peptides (dissolved in PBST) labelled at the N-terminus with biotin. After washing with PBS/0.1% Tween, the bound peptides are incubated for 45 min. with 100 μl streptavidin conjugated to alkaline phosphatase (Boehringer Mannheim GmbH; 1:10000 diluted in PBS/0.1% Tween), followed again by washing with PBS/0.1% Tween and 100 mM Tris pH 9.5. p-Nitrophenylphosphate (2 mg/ml in 100 mM Tris pH 9.5) is used as a substrate for alkaline phosphatase. The ELISA is read at 405 nm.
To investigate the importance of the constrained conformation for high affinity peptide-lipid A binding, binding activity of cyclic and the corresponding linear peptides is compared.

[9] = Chromogenic Limulus amebocyte lysate test; format: biochemical, E. coli; conditions: peptides 0.1-10 μg/ml preincubated with LPS 15 min at 37° C.; FIG. 19
Experimental: as §3

[10] = Binding of fluorescein-labelled LPS to biotinylated peptides immobilized via streptavidin; parameters: species or system Salmonella enteriditis; conditions: peptide 1 or 10 μg/ml on streptavidin plate, FITC-LPS 0.5 μg/ml; FIG. 12
Experimental: To investigate the potential use of multimeric peptides for increasing the binding to LPS, individual peptides are coated on an ELISA plate to high surface concentrations. Immobilization is performed by first coating the plate with strepravidin and then binding the peptides via their N-terminal biotin groups. Thus, 100 μl streptavidin (Boehringer Mannheim GmbH; 10 μg/ml in PBS) is used for coating followed by washing, blocking (10 min.) with PBS/0.1% Tween and a 30 min. incubation with 100 μl of purified synthetic peptides (1 μg/ml or 10 μg/ml in PBST) labelled at the N-terminus with biotin. After washing with PBS/0.1% Tween the peptides are incubated for 1 hr With FITC-labelled LPS (SIGMA; Salmonella enteriditis; 0.5 μg/ml in PBS/0.1% Tween). After washing with PBS/0.1% Tween, the ELISA plate is incubated with 100 μl of an anti-FITC antibody conjugated to alkaline phosphatase (SIGMA; 1:2500 diluted in PBS/0.1% Tween) and washed with PBS/0.1% Tween and 100 mM Tris pH 9.5. p-Nitrophenyl-phosphate (2 mg/ml in 100 mM Tris pH 9.5) is used as a substrate for alkaline phosphatase. The ELISA is read at 405 nm. All steps are done at room temperature.

[11] = LPS binding as shown by ELISA (general description); conditions: FIG. 2-7 peptides
Description: as §1

[12] = peptide 0.01-100 μg/ml, LALF 0.2 μg/ml, FIG. 13, 14

With `CC(C)C[C@@H]1NC(=O)[C@H](CCCNC(=N)N)NC(=O)[C@H](CCCNC(=N)N)NC(=O)[C@H](Cc2ccccc2)NC(=O)[C@H]([C@@H](C)O)NC(=O)[C@@H](NC(=O)CCCC[C@@H]2SC[C@@H]3NC(=O)N[C@@H]32)CSSC[C@@H](C(=O)O)NC(=O)[C@H](CCCCN)NC(=O)[C@H](Cc2c[nH]c3ccccc23)NC(=O)[C@H](CCCCN)NC1=O` [LALF-10] (Biotin-CTFRRLKWKC-OH; disulfide 1-10) the “binding to E. coli EH 100 LPS as determined by ELISA” value [1] was “Both bind lipid A and, additionally, two different types of LPS-molecules”.

With lysozyme the “competition of LBP-14 binding to lipid A” value [2] was “background determined by lysozyme as competitor”, the “competition with LALF for lipid A binding” value ([3]; at 100 μg/ml peptide, FIG. 14) was 10% and the “competition with LALF for lipid A binding” value [3, 12] was “not able to compete with LALF”.

In the case of polymyxin B, the “competition of LBP-14 binding to lipid A” value [2] is reported as “only weak competition activity at the highest concentration used”, the “competition with LALF for lipid A binding in the presence of 10% serum” value [4] is reported as “also inhibiting in the presence of 10% serum” and the “competition with LBP for lipid A binding” value [5] is reported as “not able to compete with LBP for binding to lipid A”. For the same compound, the “competition with LALF for lipid A binding” value [3, 12] was “able to displace LALF almost completely from immobilized lipid A”, the “inhibition of LPS-mediated gelling of Limulus amebocyte lysate” value [6] was “inhibit the assays” and the “inhibition of TNF release” value [7] was 95%.

For “Biotin-Z-C-K-W-K-I-R-K-F-S-C-N (Z=β-alanine) [MS-22]”, the “lipid A-binding activity (ELISA)” value [8] was “binds lipid A clearly above background level and with a similar activity to LBP-10-1, but weaker than MS-21”.

In the case of “I-K-T-K-K-F-L-K-K-T (IKTKKFLKKT) [PolP-1]”, the “inhibition of the chromogenic Limulus amebocyte lysate assay” value [9] is reported as “up to 25%”, the “competition of LBP-14 binding to lipid A” value [2] is reported as “only slightly above the background determined by lysozyme as competitor” and the “competition with LALF for lipid A binding in the presence of 10% serum” value [4] is reported as “only inhibit slightly above background”. The “competition with LALF for lipid A binding” value [3, 12] was “hardly competes with LALF for lipid A binding”.

For `CC[C@H](C)[C@@H]1NC(=O)[C@H](CCCNC(=N)N)NC(=O)[C@H](Cc2ccc(O)cc2)NC(=O)[C@H](Cc2c[nH]cn2)NC(=O)[C@@H](N)CSSC[C@@H](C(=O)O)NC(=O)[C@H](Cc2c[nH]c3ccccc23)NC(=O)[C@H](Cc2ccccc2)NC(=O)[C@H](CCCCN)NC(=O)CNC(=O)[C@H](CCCCN)NC(=O)[C@H](Cc2ccc(O)cc2)NC(=O)[C@H](CCCCN)NC(=O)[C@H](Cc2c[nH]c3ccccc23)NC(=O)[C@H](CCCCN)NC(=O)[C@H](CC(C)C)NC(=O)[C@H](CCCNC(=N)N)NC(=O)[C@H](CCCNC(=N)N)NC(=O)[C@H](Cc2ccccc2)NC(=O)[C@H]([C@@H](C)O)NC(=O)[C@@H]2CCCN2C(=O)[C@H](CCCCN)NC1=O` [amino acids 31 to 52 of LALF] (H-CHYRIKPTFRRLKWKYKGKFWC-OH; disulfide 1-22; N-terminus and C-terminus assumed), the “binding to E. coli EH 100 LPS as determined by ELISA” value [1] was “Both bind lipid A and, additionally, two different types of LPS-molecules”.

In the case of “Biotin-Z-K-C-F-T-R-R-A-K-W-R-C (Z=β-alanine) [MS-21]”, the “binding of FITC-labelled LPS to immobilized peptide” value [10] is reported as “highest binding affinity to LPS”, the “lipid A-binding activity (ELISA)” value [8] is reported as “binds lipid A weaker than LALF-14 and LBP-14, but slightly better than BPI-14” and the “competition with LALF for lipid A binding” value ([3]; at 100 μg/ml peptide, FIG. 14) is reported as about 80%.

With “amino acids 90 to 97 of BPI: peptide spanning amino acids 90 to 97 of BPI, cyclic by disulfide bond between two cysteines” the “binding to LPS as shown by ELISA” value [11] was “able to bind LPS”.
